Experimental findings from US7728028B2, “Substituted imidazoline compounds” (Gruenenthal GmbH, priority 2005, dated 2010) are described below.

In this experiment the target is T1, human μ-opiate receptor (Homo sapiens, UniProt P35372).
T1 construct: purchased PerkinElmer Life Sciences, Zaventem, Belgium RB-HOM; host or cells: CHO-K1 cells (recombinant expression; membrane preparation)
Put plainly: Affinity for the human μ-opiate receptor ([3H]-naloxone displacement, SPA). Conditions: test substance 1 μmole/l, inhibition of specific [3H]-naloxone binding, CHO-K1 membranes, read-out: μ-Opioid receptor, % inhibition [1 μM]. The procedure:
Investigations on the Efficacy of the Compounds According to the Invention Method for Determining the Affinity for the Human μ-Opiate Receptor
The receptor affinity for the human μ-opiate receptor is determined in a homogeneous batch in microtiter plates. For this purpose dilution series of the substances to be tested are incubated with a receptor membrane preparation (15-40 μg protein/250 μl incubation batch) of CHO-K1 cells, which express the human μ-opiate receptor (RB-HOM receptor membrane preparation from PerkinElmer Life Sciences, Zaventem, Belgium), in the presence of 1 nmole/l of the radioactive ligand [^3H]-naloxone (NET719, PerkinElmer Life Sciences company, Zaventem, Belgium) and 1 mg WGA-SPA beads (wheat germ agglutinin SPA beads from Amersham/Pharmacia, Freiburg, Germany) in a total volume of 250 μl for 90 minutes at room temperature. 50 mmole/l of Tris-HCl supplemented with 0.06% bovine serum albumin is used as incubation buffer. In order to determine the non-specific binding, 100 μmole/l of naloxone is additionally added. After the end of the 90 minutes' incubation time the microtiter plates are centrifuged for 20 minutes at 1000 g and the radioactivity is measured in a beta counter (Microbeta-Trilux, PerkinElmer Wallac, Freiburg, Germany). The percentage displacement of the radioactive ligand from its binding to the human μ-opiate receptor at a concentration of the test substances of 1 μmole/l is determined and is given as percentage inhibition of the specific binding.

Like-named read-outs stand apart in the source and are kept apart here.

T1 sequence (P35372 whole entry): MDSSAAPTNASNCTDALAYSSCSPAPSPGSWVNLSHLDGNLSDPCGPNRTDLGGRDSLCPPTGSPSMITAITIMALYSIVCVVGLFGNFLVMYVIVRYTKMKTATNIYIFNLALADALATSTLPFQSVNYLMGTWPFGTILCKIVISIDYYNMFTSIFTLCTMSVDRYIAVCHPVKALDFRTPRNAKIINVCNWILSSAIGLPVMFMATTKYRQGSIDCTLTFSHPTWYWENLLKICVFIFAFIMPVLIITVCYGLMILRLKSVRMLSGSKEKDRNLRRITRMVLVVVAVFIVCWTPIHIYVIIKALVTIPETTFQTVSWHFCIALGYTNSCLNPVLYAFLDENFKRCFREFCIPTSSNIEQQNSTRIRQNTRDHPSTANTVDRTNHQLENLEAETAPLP

Turning to `COC(=O)C1(CSCc2ccccc2)N=CN(C2CCCCC2)C1CC1CCC(C(c2cccc(F)c2)N(C)C)CC1` (centres unmarked) [Example 150, 4-benzylsulfanylmethyl-1-cyclohexyl-5-{4-[dimethylamino-(3-fluorophenyl)-methyl]-cyclohexylmethyl}-4,5-dihydro-1H-imidazole-4-carboxylic acid methyl ester], the inhibition at 1 µM (Table 2, Examples 11-161) is 98%.

Consider `CCCCN1C=NC(CC(C)C)(C(=O)OC)C1C1CCC(C(c2cccc(F)c2)N(C)C)CC1` (centres unmarked) [Example 29, 1-butyl-5-{4-[dimethylamino-(3-fluorophenyl)-methyl]-cyclohexyl}-4-isobutyl-4,5-dihydro-1H-imidazole-4-carboxylic acid methyl ester], for which the inhibition at 1 µM (Table 2, Examples 11-161) came out at 89%.

For the molecule `CCCN1C=NC(CSC)(C(=O)OC)C1CC1CCC(C(c2ccc(F)cc2)N(C)C)CC1` (centres unmarked) [Example 160, 5-{4-[dimethylamino-(4-fluorophenyl)-methyl]-cyclohexylmethyl}-4-methylsulfanylmethyl-1-propyl-4,5-dihydro-1H-imidazole-4-carboxylic acid methyl ester], the inhibition at 1 µM (Table 2, Examples 11-161) came to 74%.

`CCCCN1C=NC(CC(C)C)(C(=O)OC)C1C1CCC(C(c2ccc(Cl)cc2)N(C)C)CC1` (centres unmarked) [Example 31, 1-butyl-5-{4-[(4-chlorophenyl)-dimethylaminomethyl]-cyclohexyl}-4-isobutyl-4,5-dihydro-1H-imidazole-4-carboxylic acid methyl ester]: the inhibition at 1 µM (Table 2, Examples 11-161) was 91%.

With `COC(=O)C1(C)N=CN(Cc2ccccc2)C1CC1CCC(C(c2cccc(F)c2)N(C)C)CC1` (centres unmarked) [Example 140, 1-benzyl-5-{4-[dimethylamino-(3-fluorophenyl)-methyl]-cyclohexylmethyl}-4-methyl-4,5-dihydro-1H-imidazole-4-carboxylic acid methyl ester], the inhibition at 1 µM (Table 2, Examples 11-161) turned out to be 98%.

Turning to `COC(=O)CCC1(C(=O)OC)N=CN(CCc2ccccc2)C1CC1CCC(C(c2ccc(Cl)cc2)N(C)C)CC1` (centres unmarked) [Example 94, 5-{4-[(4-chlorophenyl)-dimethylaminomethyl]-cyclohexylmethyl}-4-(2-methoxycarbonylethyl)-1-phenethyl-4,5-dihydro-1H-imidazole-4-carboxylic acid methyl ester], where the note is “Table 2, Examples 11-161”, the inhibition at 1 µM stood at 97%.

Turning to `COC(=O)C1(CSC)N=CN(C2CCCCC2)C1CC1CCC(C(CCc2ccccc2)N(C)C)CC1` (centres unmarked) [Example 155, 1-cyclohexyl-5-[4-(1-dimethylamino-3-phenylpropyl)-cyclohexylmethyl]-4-methylsulfanylmethyl-4,5-dihydro-1H-imidazole-4-carboxylic acid methyl ester], the inhibition at 1 µM (Table 2, Examples 11-161) was found to be 86%.

`COC(=O)C1(CSCc2ccccc2)N=CN(C2CCCCC2)C1C1CCC(C(c2ccc(Cl)cc2)N(C)C)CC1` (centres unmarked) [Example 52, 4-benzylsulfanylmethyl-5-{4-[(4-chlorophenyl)-dimethylaminomethyl]-cyclohexyl}-1-cyclohexyl-4,5-dihydro-1H-imidazole-4-carboxylic acid methyl ester]: the inhibition at 1 µM (Table 2, Examples 11-161) was 99%.

Regarding `COC(=O)C1(CC(C)C)N=CN(CCc2ccccc2)C1C1CCC(C(c2ccc(Cl)cc2)N(C)C)CC1` (centres unmarked) [Example 40, 5-{4-[(4-chlorophenyl)-dimethylaminomethyl]-cyclohexyl}-4-isobutyl-1-phenethyl-4,5-dihydro-1H-imidazole-4-carboxylic acid methyl ester], the inhibition at 1 µM (Table 2, Examples 11-161) came out at 95%.

As to `COC(=O)CCC1(C(=O)OC)N=CN(C2CCCCC2)C1CC1CCC(C(c2cccc(F)c2)N(C)C)CC1` (centres unmarked) [Example 147, 1-cyclohexyl-5-{4-[dimethylamino-(3-fluorophenyl)-methyl]-cyclohexylmethyl}-4-(2-methoxycarbonylethyl)-4,5-dihydro-1H-imidazole-4-carboxylic acid methyl ester], the inhibition at 1 µM (Table 2, Examples 11-161) is 98%.

In the case of `CN(C)C(c1ccc(Cl)cc1)C1CCC(C=O)CC1` (centres unmarked) [Example 9c, 4-[(4-chlorophenyl)-dimethylaminomethyl]-cyclohexane-carbaldehyde], the inhibition at 1 µM (Table 1, aldehydes) was 45%.

Regarding `COC(=O)C1(C)N=CN(C2CCCCC2)C1CC1CCC(C(CCc2ccccc2)N(C)C)CC1` (centres unmarked) [Example 110, 1-cyclohexyl-5-[4-(1-dimethylamino-3-phenylpropyl)-cyclohexylmethyl]-4-methyl-4,5-dihydro-1H-imidazole-4-carboxylic acid methyl ester], the inhibition at 1 µM (Table 2, Examples 11-161) came out at 67%.

On to `CCCCC1(C(=O)OC)N=CN(C2CCCCC2)C1C1CCC(C(c2ccc(Cl)cc2)N(C)C)CC1` (centres unmarked) [Example 16, 4-butyl-5-{4-[(4-chlorophenyl)-dimethylaminomethyl]-cyclohexyl}-1-cyclohexyl-4,5-dihydro-1H-imidazole-4-carboxylic acid methyl ester], for which the inhibition at 1 µM (Table 2, Examples 11-161) was 92%.

As to `CCCN1C=NC(CC(C)C)(C(=O)OC)C1CC1CCC(C(c2ccc(Cl)cc2)N(C)C)CC1` (centres unmarked) [Example 26, 5-{4-[(4-chlorophenyl)-dimethylaminomethyl]-cyclohexylmethyl}-4-isobutyl-1-propyl-4,5-dihydro-1H-imidazole-4-carboxylic acid methyl ester], the inhibition at 1 µM (Table 2, Examples 11-161) worked out at 96%.

Consider `CCCCN1C=NC(CSC)(C(=O)OC)C1C1CCC(C(c2cccc(F)c2)N(C)C)CC1` (centres unmarked) [Example 66, 1-butyl-5-{4-[dimethylamino-(3-fluorophenyl)-methyl]-cyclohexyl}-4-methylsulfanylmethyl-4,5-dihydro-1H-imidazole-4-carboxylic acid methyl ester], for which the inhibition at 1 µM (Table 2, Examples 11-161) came out at 89%.

With `CCCC1(C(=O)OC)N=CN(Cc2ccccc2)C1CC1CCC(C(c2ccc(F)cc2)N(C)C)CC1` (centres unmarked) [Example 141, 1-benzyl-5-{4-[dimethylamino-(4-fluorophenyl)-methyl]-cyclohexylmethyl}-4-propyl-4,5-dihydro-1H-imidazole-4-carboxylic acid methyl ester], the inhibition at 1 µM (Table 2, Examples 11-161) was 98%.

Regarding `CCCN1C=NC(CCC(=O)OC)(C(=O)OC)C1CC1CCC(C(c2ccc(Cl)cc2)N(C)C)CC1` (centres unmarked) [Example 61, 5-{4-[(4-chlorophenyl)-dimethylaminomethyl]-cyclohexylmethyl}-4-(2-methoxycarbonylethyl)-1-propyl-4,5-dihydro-1H-imidazole-4-carboxylic acid methyl ester], the inhibition at 1 µM (Table 2, Examples 11-161) worked out at 93%.

In the case of `CCCN1C=NC(CCC(=O)OC)(C(=O)OC)C1CC1CCC(C(c2cccc(F)c2)N(C)C)CC1` (centres unmarked) [Example 157, 5-{4-[dimethylamino-(3-fluorophenyl)-methyl]-cyclohexylmethyl}-4-(2-methoxycarbonylethyl)-1-propyl-4,5-dihydro-1H-imidazole-4-carboxylic acid methyl ester], the inhibition at 1 µM (Table 2, Examples 11-161) is 91%.

In the case of `COC(=O)C1(CSCc2ccccc2)N=CN(Cc2ccccc2)C1CC1CCC(C(c2cccc(F)c2)N(C)C)CC1` (centres unmarked) [Example 86, 1-benzyl-4-benzylsulfanylmethyl-5-{4-[dimethylamino-(3-fluorophenyl)-methyl]-cyclohexylmethyl}-4,5-dihydro-1H-imidazole-4-carboxylic acid methyl ester], the inhibition at 1 µM (Table 2, Examples 11-161) came to 71%.

With `COC(=O)C1(Cc2ccc(Cl)cc2)N=CN(C2CCCCC2)C1CC1CCC(C(c2cccs2)N(C)C)CC1` (centres unmarked) [Example 20, 4-(4-chlorobenzyl)-1-cyclohexyl-5-[4-(dimethylamino-thiophen-2-yl-methyl)-cyclohexylmethyl]-4,5-dihydro-1H-imidazole-4-carboxylic acid methyl ester], the inhibition at 1 µM (Table 2, Examples 11-161) was 95%.

For orientation: inhibition means the change of the read-out against control, counted positive when it falls.
